According to patent US7524968B2, “2-pyridinylcycloalkylbenzamide derivatives and their use as fungicides” (Bayer Cropscience S.A., priority 2004, dated 2009):

Experiments:
Details in all cases: 330 ppm; result in words
[1] = system: Botrytis cinerea; assay: Effectiveness on Botrytis cinerea (comparison compounds of WO 01/11965); type: in vivo
[2] = system: Peronospora parasitica; assay: Efficacy against Peronospora parasitica (comparison compound of WO 01/11965); type: in vivo
[3] = system: Alternaria brassicae; assay: In vivo test on Alternaria brassicae (leaf spot of crucifers) on radish plants
Procedure: The active ingredient tested is prepared by potter homogenization in a concentrated suspension type formulation at 100 g/l. This suspension is then diluted with water to obtain the desired active material concentration.
Radish plants (Pernot variety) in starter cups, sown on a 50/50 peat soil-pozzolana substrate and grown at 18-20° C., are treated at the cotyledon stage by spraying with the aqueous suspension described above.
Plants, used as controls, are treated with an aqueous solution not containing the active material.
After 24 hours, the plants are contaminated by spraying them with an aqueous suspension of Alternaria brassicae spores (40,000 spores per cm^3). The spores are collected from a 12-13-day-old culture.
The contaminated radish plants are incubated for 6-7 days at about 18° C., under a humid atmosphere.
Grading is carried out 6 to 7 days after the contamination, in comparison with the control plants.

SMILES | effectiveness on Botrytis cinerea [1] | efficacy against Peronospora parasitica [2] | effectiveness on Alternaria brassicae [3]
O=C(Cc1cccs1)NCc1ncc(C(F)(F)F)cc1Cl [compound 101, N-{[3-chloro-5-(trifluoromethyl)-2-pyridinyl]methyl}-5-thienylacetamide] | no efficacy | no efficacy | poor efficacy
CCNC(=O)C(Cc1ncc(C(F)(F)F)cc1Cl)NC(=O)c1ccccc1 (stereo not drawn) [compound 304, N-{1-ethylcarbamoyl-2-[3-chloro-5-(trifluoromethyl)-2-pyridinyl]-ethyl}-benzamide] | zero effectiveness |  | 
CCNC(=O)C(Cc1ncc(C(F)(F)F)cc1Cl)NC(=O)c1ccc(Cl)cc1 (stereo not drawn) [compound 306, N-{1-ethylcarbamoyl-2-[3-chloro-5-(trifluoromethyl)-2-pyridinyl]ethyl}-4-chlorobenzamide] | zero effectiveness |  | 
CCNC(=O)C(Cc1ncc(C(F)(F)F)cc1Cl)NC(=O)c1cccc([N+](=O)[O-])c1 (stereo not drawn) [compound 307, N-{1-ethylcarbamoyl-2-[3-chloro-5-(trifluoromethyl)-2-pyridinyl]ethyl}-3-nitrobenzamide] | zero effectiveness |  | poor effectiveness
CCNC(=O)C(Cc1ncc(C(F)(F)F)cc1Cl)NC(=O)c1ccccc1Br (stereo not drawn) [compound 310, N-{1-ethylcarbamoyl-2-[3-chloro-5-(trifluoromethyl)-2-pyridinyl]ethyl}-2-bromobenzamide] | zero effectiveness |  | 
CNC(=O)C(Cc1ncc(C(F)(F)F)cc1Cl)NC(=O)c1ccccc1 (stereo not drawn) [compound 314, N-{1-methylcarbamoyl-2-[3-chloro-5-(trifluoromethyl)-2-pyridinyl]ethyl}-benzamide] | zero effectiveness |  | 
CNC(=O)C(Cc1ncc(C(F)(F)F)cc1Cl)NC(=O)c1ccc(OC)cc1 (stereo not drawn) [compound 315, N-{1-methylcarbamoyl-2-[3-chloro-5-(trifluoromethyl)-2-pyridinyl]ethyl}-4-methoxybenzamide] | zero effectiveness |  | 
CNC(=O)C(Cc1ncc(C(F)(F)F)cc1Cl)NC(=O)c1ccc(-c2ccccc2)cc1 (stereo not drawn) [compound 316, N-{1-methylcarbamoyl-2-[3-chloro-5-(trifluoromethyl)-2-pyridinyl]-ethyl}-4-phenylbenzamide] | zero effectiveness |  | poor effectiveness
